Measurements published in paper PMC6597546, “Identification of a potent benzoxaborole drug candidate for treating cryptosporidiosis” (Nature Communications, 2019).
Values joined by “and” are separate entries in the source; they are usually repeats but may differ in a detail not shown here. Equal entries are not always repeated.

System: C. parvum (Bunch Grass Farms Iowa isolate)
Experiment: Neonatal calf model of cryptosporidiosis
Format: in vivo
Design: key to Oocyst Shedding, individual calves / Oocyst Shedding: C. parvum abundance per gram of fecal dry matter (qPCR); key to Fecal Consistency Score, individual calves / Fecal Consistency Score: score 1 = normal, 3 = severely abnormal
Settings: for Fecal Consistency Score / Oocyst Shedding: 10 mg/kg every 12 h with delayed start
Protocol: All calf efficacy studies were performed as previously described. These studies were approved by the University of Vermont Institutional animal Care and Use Committee, and conducted in compliance with the USDA-APHIS “Blue Book”, available at www.aphis.usda.gov/animal-welfare. Holstein bull calves were acquired at birth from Green Mountain Dairy (Sheldon, VT), given synthetic colostrum with 200 g of IgG (Land O’Lakes, Ardent Hills, MO) and bovine coronavirus and Escherichia coli antibodies (First Defense Bolus, Immuncell Corporation, Portland, ME) within 2 h of birth, and transported to UVM. Calves were group-housed initially, and infected at 24–48 h of age during an interruption in bottle feeding by oral administration of ∼5 × 10^7 C. parvum Iowa isolate oocysts (Bunch Grass Farms, Deary, ID) suspended in 10 mL of water. They were then moved to individual raised pens, and observed twice daily at feeding times for clinical signs, which were quantified according to a previously described standardized scoring rubric. Data on fecal consistency, dehydration and overall health were collected, in each case with a score of 1 being normal and 3 being severely abnormal (scoring rubric in Supplementary Table 2). Clinical microbiologic studies for adventitious infectious agents including Salmonella culture, aerobic bacterial culture with E. coli genotyping, rotavirus, and coronavirus testing were performed on all calves at the onset of diarrhea by the Cornell Animal Health Diagnostic Center (Ithaca, NY). Animals with severe diarrhea or other symptoms were supported aggressively, including with administration of oral electrolytes, intravenous fluids and flunixin meglumine (Banamine, Merck) as needed. […] Daily fecal samples were obtained from collections bins located under each pen. Fecal samples used for parasite quantification were dried at 90 °C until stable in weight, and C. parvum abundance per gram of fecal dry matter was measured using qPCR and the primers Cp18s forward and Cp18s reverse.

In the case of `CC1(C)OB(O)c2cc(NC(=O)c3ccc(-n4cccn4)cc3Cl)ccc21` [AN7973], the “Fecal Consistency Score” value (Calf 1, Day 2) is reported as 1.67, the “Oocyst Shedding” value (Calf 1, Day 2) is reported as 4028 and the “Fecal Consistency Score” value (Calf 1, Day 3) is reported as 2. For the same compound, the “Oocyst Shedding” value (Calf 1, Day 3) was 3180923, the “Fecal Consistency Score” value (Calf 1, Day 4) was 2.33 and the “Oocyst Shedding” value (Calf 1, Day 4) was 4800342. For the same compound, the “Fecal Consistency Score” value (Calf 1, Day 5) was 1.5, the “Oocyst Shedding” value (Calf 1, Day 5) was 120115 and the “Fecal Consistency Score” value (Calf 1, Day 6) was 1. The “Oocyst Shedding” value (Calf 1, Day 6) was 5946, the “Fecal Consistency Score” value (Calf 1, Day 7) was 1 and the “Oocyst Shedding” value (Calf 1, Day 7) was 4811. For the same compound, the “Fecal Consistency Score” value (Calf 1, Day 8) was 1, the “Oocyst Shedding” value (Calf 1, Day 8) was 154 and the “Fecal Consistency Score” value (Calf 1, Day 9) was 1. The “Oocyst Shedding” value (Calf 1, Day 9) was 1, the “Fecal Consistency Score” value (Calf 1, Day 10) was 1 and the “Oocyst Shedding” value (Calf 1, Day 10) was 1. For the same compound, the “Fecal Consistency Score” value (Calf 1, Day 11) was 1, the “Oocyst Shedding” value (Calf 1, Day 11) was 164 and the “Fecal Consistency Score” value (Calf 1, Day 12) was 1. The “Oocyst Shedding” value (Calf 1, Day 12) was 1032, the “Fecal Consistency Score” value (Calf 1, Day 13) was 1 and the “Oocyst Shedding” value (Calf 1, Day 13) was 1. For the same compound, the “Fecal Consistency Score” value (Calf 1, Day 14) was 1, the “Oocyst Shedding” value (Calf 1, Day 14) was 1 and the “Fecal Consistency Score” value (Calf 2, Day 0) was 1. For the same compound, the “Oocyst Shedding” value (Calf 2, Day 0) was 1, the “Fecal Consistency Score” value (Calf 2, Day 1) was 3 and the “Oocyst Shedding” value (Calf 2, Day 1) was 15983. The “Fecal Consistency Score” value (Calf 2, Day 2) was 2, the “Oocyst Shedding” value (Calf 2, Day 2) was 572309 and the “Fecal Consistency Score” value (Calf 2, Day 3) was 2.67. The “Oocyst Shedding” value (Calf 2, Day 3) was 9928800, the “Fecal Consistency Score” value (Calf 2, Day 4) was 3 and the “Oocyst Shedding” value (Calf 2, Day 4) was 10753010. For the same compound, the “Fecal Consistency Score” value (Calf 2, Day 5) was 2.33, the “Oocyst Shedding” value (Calf 2, Day 5) was 89411 and the “Fecal Consistency Score” value (Calf 2, Day 6) was 1. The “Oocyst Shedding” value (Calf 2, Day 6) was 36783, the “Fecal Consistency Score” value (Calf 2, Day 7) was 1 and the “Oocyst Shedding” value (Calf 2, Day 7) was 6676. For the same compound, the “Fecal Consistency Score” value (Calf 2, Day 8) was 1, the “Oocyst Shedding” value (Calf 2, Day 8) was 2648 and the “Fecal Consistency Score” value (Calf 2, Day 9) was 1. For the same compound, the “Oocyst Shedding” value (Calf 2, Day 9) was 2147, the “Fecal Consistency Score” value (Calf 2, Day 10) was 1 and the “Oocyst Shedding” value (Calf 2, Day 10) was 401. For the same compound, the “Fecal Consistency Score” value (Calf 2, Day 11) was 1, the “Oocyst Shedding” value (Calf 2, Day 11) was 10 and the “Fecal Consistency Score” value (Calf 2, Day 12) was 1. For the same compound, the “Oocyst Shedding” value (Calf 2, Day 12) was 1, the “Fecal Consistency Score” value (Calf 2, Day 13) was 1 and the “Oocyst Shedding” value (Calf 2, Day 13) was 1. The “Fecal Consistency Score” value (Calf 2, Day 14) was 1, the “Oocyst Shedding” value (Calf 2, Day 14) was 1 and the “Fecal Consistency Score” value (Calf 3, Day 0) was 1. The “Oocyst Shedding” value (Calf 3, Day 0) was 1, the “Fecal Consistency Score” value (Calf 3, Day 1) was 3 and the “Oocyst Shedding” value (Calf 3, Day 1) was 4675. For the same compound, the “Fecal Consistency Score” value (Calf 3, Day 2) was 2.33, the “Oocyst Shedding” value (Calf 3, Day 2) was 376713 and the “Fecal Consistency Score” value (Calf 3, Day 3) was 2.5. The “Oocyst Shedding” value (Calf 3, Day 3) was 3074178, the “Fecal Consistency Score” value (Calf 3, Day 4) was 3 and the “Oocyst Shedding” value (Calf 3, Day 4) was 1097033. For the same compound, the “Fecal Consistency Score” value (Calf 3, Day 5) was 2.33, the “Oocyst Shedding” value (Calf 3, Day 5) was 172967 and the “Fecal Consistency Score” value (Calf 3, Day 6) was 1.5. For the same compound, the “Oocyst Shedding” value (Calf 3, Day 6) was 10727, the “Fecal Consistency Score” value (Calf 3, Day 7) was 1 and the “Oocyst Shedding” value (Calf 3, Day 7) was 1. The “Fecal Consistency Score” value (Calf 3, Day 8) was 1, the “Oocyst Shedding” value (Calf 3, Day 8) was 363 and the “Fecal Consistency Score” value (Calf 3, Day 9) was 1. The “Oocyst Shedding” value (Calf 3, Day 9) was 1134, the “Fecal Consistency Score” value (Calf 3, Day 10) was 1 and the “Oocyst Shedding” value (Calf 3, Day 10) was 624. For the same compound, the “Fecal Consistency Score” value (Calf 3, Day 11) was 1, the “Oocyst Shedding” value (Calf 3, Day 11) was 1 and the “Fecal Consistency Score” value (Calf 3, Day 12) was 1. The “Oocyst Shedding” value (Calf 3, Day 12) was 1, the “Fecal Consistency Score” value (Calf 3, Day 13) was 1 and the “Oocyst Shedding” value (Calf 3, Day 13) was 28. For the same compound, the “Fecal Consistency Score” value (Calf 3, Day 14) was 1, the “Oocyst Shedding” value (Calf 3, Day 14) was 1 and the “Oocyst Shedding, individual calves” value (10 mg/kg every 24 h on days 2–8, Day 0) was 100 and 331 and 774. The “Oocyst Shedding, individual calves” value (10 mg/kg every 24 h on days 2–8, Day 1) was 6698 and 100 (2×), the “Oocyst Shedding, individual calves” value (10 mg/kg every 24 h on days 2–8, Day 3) was 644594 and 196913 and 724661 and the “Oocyst Shedding, individual calves” value (10 mg/kg every 24 h on days 2–8, Day 4) was 119580 and 31776 and 1355. The “Oocyst Shedding, individual calves” value (10 mg/kg every 24 h on days 2–8, Day 5) was 573 and 17468 and 8981, the “Oocyst Shedding, individual calves” value (10 mg/kg every 24 h on days 2–8, Day 7) was 67293 and 6611 and 7598 and the “Oocyst Shedding, individual calves” value (10 mg/kg every 24 h on days 2–8, Day 9) was 54864 and 100 and 1163. The “Oocyst Shedding, individual calves” value (10 mg/kg every 24 h on days 2–8, Day 10) was 139951 and 100 and 1010, the “reduction of total burden of fecal C. parvum shedding (AUC)” value (bovine, in vivo) was “over 90%” and the “reduction of fecal C. parvum shedding rate” value (first three days of treatment) was “nearly five logs”. The “Fecal Consistency Score, individual calves” value (scale 1 normal to 3 severely abnormal, 5 mg/kg every 12 h on days 2–8, Day 0) was 1, the “Fecal Consistency Score, individual calves” value (scale 1–3, 5 mg/kg every 12 h on days 2–8, Day 1) was 1 and the “Fecal Consistency Score, individual calves” value (scale 1–3, 5 mg/kg every 12 h on days 2–8, Day 2) was 1. For the same compound, the “Fecal Consistency Score, individual calves” value (scale 1–3, 5 mg/kg every 12 h on days 2–8, Day 3) was 1, the “Fecal Consistency Score, individual calves” value (scale 1–3, 5 mg/kg every 12 h on days 2–8, Day 4) was 1 and the “Fecal Consistency Score, individual calves” value (scale 1–3, 5 mg/kg every 12 h on days 2–8, Day 5) was 1. For the same compound, the “Fecal Consistency Score, individual calves” value (scale 1–3, 5 mg/kg every 12 h on days 2–8, Day 6) was 1, the “Fecal Consistency Score, individual calves” value (scale 1–3, 5 mg/kg every 12 h on days 2–8, Day 7) was 1 and the “Fecal Consistency Score, individual calves” value (scale 1–3, 5 mg/kg every 12 h on days 2–8, Day 8) was 1. For the same compound, the “Fecal Consistency Score, individual calves” value (scale 1–3, 5 mg/kg every 12 h on days 2–8, Day 9) was 1, the “Fecal Consistency Score, individual calves” value (scale 1–3, 5 mg/kg every 12 h on days 2–8, Day 10) was 1 and the “Fecal Consistency Score, individual calves” value (scale 1–3, 10 mg/kg every 24 h on days 2–8, Day 0) was 1. For the same compound, the “Fecal Consistency Score, individual calves” value (scale 1–3, 10 mg/kg every 24 h on days 2–8, Day 1) was 1, the “Fecal Consistency Score, individual calves” value (scale 1–3, 10 mg/kg every 24 h on days 2–8, Day 2, 10 mg/kg) was 1.33 (2×) and 2.67 and the “Fecal Consistency Score, individual calves” value (scale 1–3, 10 mg/kg every 24 h on days 2–8, Day 3, 10 mg/kg) was 2 (2×) and 2.33. For the same compound, the “Fecal Consistency Score, individual calves” value (scale 1–3, 10 mg/kg every 24 h on days 2–8, Day 4, 10 mg/kg) was 2.33 and 1.33 (2×), the “Fecal Consistency Score, individual calves” value (scale 1–3, 10 mg/kg every 24 h on days 2–8, Day 5) was 1 and the “Fecal Consistency Score, individual calves” value (scale 1–3, 10 mg/kg every 24 h on days 2–8, Day 6) was 1. The “Fecal Consistency Score, individual calves” value (scale 1–3, 10 mg/kg every 24 h on days 2–8, Day 7) was 1, the “Fecal Consistency Score, individual calves” value (scale 1–3, 10 mg/kg every 24 h on days 2–8, Day 8) was 1 and the “Fecal Consistency Score, individual calves” value (scale 1–3, 10 mg/kg every 24 h on days 2–8, Day 9) was 1. The “Fecal Consistency Score, individual calves” value (scale 1–3, 10 mg/kg every 24 h on days 2–8, Day 10) was 1, the effect on dehydration (several of the treatment regimens) was “significantly reduced the overall severity of dehydration” and the tolerability in calves (twice daily assessment of alertness, interaction, appetite) was “tolerated AN7973 well”.
